{
  "source": "patent US8323708B2",
  "about": "“Poultry meat and eggs comprising beneficial fatty acids” (Monsanto Technology LLC, priority 2009, dated 2012)",
  "experiment": "Laying hen study: long chain fatty acid composition of eggs",
  "format": "in vivo, laying hens",
  "protocol": "A study was conducted to determine whether laying hens fed a diet enriched in stearidonic acid could produce eggs with elevated levels of beneficial omega-3 fatty acids including EPA and DHA. Mature laying hens […] were randomly allotted to seven dietary treatments (16 hens/treatment) and were fed diets containing the following levels of n-3 fatty acids as described in Table 28 for four weeks. Sixteen birds were given each treatment. Four birds were randomly selected out of the 16 per treatment to obtain eggs during week 4 for fatty acid composition. […] The laying hens had ad libitum access to feed and water. The composition of the diets (Table 29) and premixes (Table 30) are provided below. To help prevent oxidation of the fatty acids, 0.05% ethoxyquin (Rendox) was added to each premix. Premixes were manufactured within 3 days of arrival of ethyl esters. To limit the oxidation associated with storage, diets were manufactured once and stored in a refrigerated cooler at 4° C. during the duration of the study. Eggs collected during […] (days 22-28) were maintained under refrigerated conditions until all eggs for that week were collected. Eggs were sorted by hen and treatment. Two eggs per hen from 4 hens per treatment were taken. The two eggs were weighed individually, cracked and the shell weighed. The difference between fresh egg and shell represented liquid egg weight and served as the basis for further calculations. The liquid fraction from each of the two eggs per hen were combined in a sample cup and homogenized. Samples were analyzed for fatty acids by gas chromatography.",
  "data": [
    {"smiles": "CC/C=C\\C/C=C\\C/C=C\\CCCCCCCC(=O)OCC", "note": "[ALA Ethyl Ester]", "values": [
      {"measurement": "ALA (C18:3n-3)", "setting": "total egg, 0.932% of diet", "result": 267.5, "unit": "mg/100 g"},
      {"measurement": "DHA (C22:6n-3)", "setting": "total egg, 0.932% of diet", "result": 132.5, "unit": "mg/100 g"},
      {"measurement": "DPA (C22:5 n-3)", "setting": "total egg, 0.932% of diet", "result": 22.5, "unit": "mg/100 g"},
      {"measurement": "EPA (C20:5n-3)", "setting": "total egg, 0.932% of diet", "result": 7.5, "unit": "mg/100 g"},
      {"measurement": "Omega 6/Omega 3 ratio", "setting": "total egg, 0.932% of diet", "result": 2.9},
      {"measurement": "Total omega 3's", "setting": "total egg, 0.932% of diet", "result": 430, "unit": "mg/100 g"},
      {"measurement": "ALA (C18:3n-3)", "setting": "total egg, 1.864% of diet", "result": 622.5, "unit": "mg/100 g"},
      {"measurement": "DHA (C22:6n-3)", "setting": "total egg, 1.864% of diet", "result": 155, "unit": "mg/100 g"},
      {"measurement": "DPA (C22:5 n-3)", "setting": "total egg, 1.864% of diet", "result": 32.5, "unit": "mg/100 g"},
      {"measurement": "EPA (C20:5n-3)", "setting": "total egg, 1.864% of diet", "result": 12.5, "unit": "mg/100 g"},
      {"measurement": "Omega 6/Omega 3 ratio", "setting": "total egg, 1.864% of diet", "result": 1.5},
      {"measurement": "SDA (C18:4n-3)", "setting": "total egg, 1.864% of diet", "result": 2.5, "unit": "mg/100 g"},
      {"measurement": "Total omega 3's", "setting": "total egg, 1.864% of diet", "result": 825, "unit": "mg/100 g"}
    ]},
    {"smiles": "CC/C=C\\C/C=C\\C/C=C\\CCCCCCCC(=O)OCC", "note": "[ALA, alpha-Linolenic Acid - Ethyl Esters]", "values": [
      {"measurement": "accumulation of SDA or DPA in eggs", "setting": "dietary enrichment of laying hens", "result": "no significant accumulation"}
    ]}
  ]
}
